Data published in patent US20230081321A1, “CARBONIC ANHYDRASE II COMPOSITIONS AND METHODS OF USE THEREOF” (University of Florida Research Foundation, Incorporated, priority 2020, published 2023).
“Also recorded” adds a separate entry of the source. Blank lines part the entries; values can stand above or below the molecule they belong to.

Tests used:
[1] = cited from earlier work
[2] = target: T1, CAII (Homo sapiens, UniProt P00918); assay: CAII esterase inhibition assay with 4-nitrophenyl acetate (pNPA) as colorimetric substrate; details: at physiologically relevant concentrations
[3] = system: mouse hearts; assay: Oxygen consumption by Langendorff-perfused mouse hearts; details: 1 mM inhibitor, ex vivo Langendorff perfusion, C57BL6 mouse hearts, O2 in minus O2 out vs control solution
Protocol: To test the effects of carbonic anhydrase inhibitors on oxygen consumption, Langendorff perfusion experiments were conducted using mouse hearts. Hearts were isolated from ˜12-week-old C57BL6 male mice and perfused ex vivo in Langendorff mode (retrograde perfusion via the aorta) with perfusate containing Krebs-Henseleit electrolytes with 2 mM acetate. The perfusate was constantly oxygenated with an oxygenator. […] The inhibitor solution was oxygenated by bubbling with 95% O2/5% CO2 mixed gas prior to adding.
Dissolved oxygen concentration was measured in the perfusate, or in the carbonic anhydrase inhibitor solution, using an Oxygraph+ system. […] In each figure, “O2 in” refers to the oxygen concentration in the perfusate prior to entering the heart or in the carbonic anhydrase inhibitor solution, and “O2 out” refers to the oxygen concentration in the perfusate after it passes through the heart.
Oxygen consumption was measured as the difference between the O2 in measurements and the O2 out measurements, and results are shown in FIG. 32.

[4] = target: T1, CAII; details: CAII binding; cited from earlier work

Compound: CC(=O)Oc1ccccc1C(=O)O [Aspirin, Acetylsalicylic acid]
half-life in blood [1]: ~15 min

inhibition of CAII [2]: completely inhibited CAII
Compound: O=C(O)c1ccccc1O [SA, salicylic acid]

Compound: CC(=O)Nc1nnc(S(N)(=O)=O)s1 [acetazolamide]
oxygen consumption by the heart [3]: increase in oxygen consumption; also recorded: increased oxygen consumption

Compound: [Cu] [copper]
specificity toward copper over zinc [4]: 50 fold

Compound: CCN[C@H]1C[C@H](C)S(=O)(=O)c2sc(S(N)(=O)=O)cc21 [dorzolamide]
oxygen consumption by the heart [3]: increase in oxygen consumption; also recorded: increased oxygen consumption
